Biological target: T1, METTL3/14 (Homo sapiens, UniProt Q86U44)
T1 construct: purchased active motif 31570
Test: METTL3/14 methyltransferase activity assay (HTRF)
Assay type: biochemical
Details: 10 concentrations, 3-fold dilution from 10 µM
Procedure: The final initial concentration of the compound was 10 µM, with 3-fold serial dilution to give a total of 10 concentrations. 100 nL of the compound was transferred to a 384-well plate and centrifuged at 1000 RPM. 2.5 µL of METTL3/14 (active motif, Cat No. 31570) was added to the test wells and incubated at 25°C for 10 min. 2.5 µL of METTL3-Biotin & SAM (GenScript) was added to the test wells andincubated at 25°C for 60 min. 2.5 µL of YTHDF1 (active motif, Cat No. 31608) was added to the test wells and centrifuged at 1000 RPM. 2.5 µL of Streptavidin-Tb (Perkin Elmer Cat No. 61SATLB) & Flag-mede (Perkin Elmer Cat No. 61FG2DLA) was added to the test wells and centrifuged at 1000 RPM. Incubated at 25°C for 60 min. HTRF was measured using a Plate reader. The results of each compound are shown in Table 1, where A+indicates <10nM, A indicates 10-100nM, B indicates 100-1000nM, and C indicates >1000nM.

T1 sequence (Q86U44 whole entry): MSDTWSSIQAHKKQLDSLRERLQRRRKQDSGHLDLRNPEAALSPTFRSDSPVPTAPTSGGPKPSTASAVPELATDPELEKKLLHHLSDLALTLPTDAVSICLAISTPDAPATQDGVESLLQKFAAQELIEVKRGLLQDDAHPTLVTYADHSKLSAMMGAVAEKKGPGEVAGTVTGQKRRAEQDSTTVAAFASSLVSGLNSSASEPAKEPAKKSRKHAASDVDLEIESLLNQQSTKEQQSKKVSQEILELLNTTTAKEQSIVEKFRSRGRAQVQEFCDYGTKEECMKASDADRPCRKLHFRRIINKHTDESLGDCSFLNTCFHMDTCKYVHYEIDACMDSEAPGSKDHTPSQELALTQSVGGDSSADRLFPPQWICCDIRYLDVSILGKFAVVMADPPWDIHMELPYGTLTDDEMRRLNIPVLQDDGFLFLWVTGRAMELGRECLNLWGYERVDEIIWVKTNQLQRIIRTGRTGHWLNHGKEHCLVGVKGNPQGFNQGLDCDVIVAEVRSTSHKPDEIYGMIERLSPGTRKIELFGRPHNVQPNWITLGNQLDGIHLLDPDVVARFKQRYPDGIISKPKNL
T1 sequence (Q9HCE5 whole entry partner): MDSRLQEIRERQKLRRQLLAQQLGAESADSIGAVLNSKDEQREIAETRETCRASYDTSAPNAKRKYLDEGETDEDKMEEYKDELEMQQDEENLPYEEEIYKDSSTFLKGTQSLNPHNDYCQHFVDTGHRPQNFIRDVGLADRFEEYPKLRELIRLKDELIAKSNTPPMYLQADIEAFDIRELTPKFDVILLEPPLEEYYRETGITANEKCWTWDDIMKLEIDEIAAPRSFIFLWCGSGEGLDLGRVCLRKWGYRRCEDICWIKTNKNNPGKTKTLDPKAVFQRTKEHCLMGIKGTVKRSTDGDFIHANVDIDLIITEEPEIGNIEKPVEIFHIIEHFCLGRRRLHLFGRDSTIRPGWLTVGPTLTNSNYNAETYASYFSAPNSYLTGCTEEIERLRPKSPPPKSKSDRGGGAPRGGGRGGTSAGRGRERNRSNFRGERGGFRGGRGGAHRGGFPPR

Row | SMILES | IC50 [nM]
1 | O=C(NCc1ccc2cc(CNC3CC(F)(F)C3)[nH]c2c1)c1cc(=O)n2cc3c(cc2n1)OCO3 [Example 39, N-((2-(((3,3-Difluorocyclobutyl)amino)methyl)-1H-indol-6-yl)methyl)-8-oxo-8H-[1,3]dioxolo[4',5':4,5]pyrido[1,2-a]pyrimidine-6-carboxamide] | 10 to 100
2 | O=C(NCc1ccc2cc(CNCC34CCCC3C4)[nH]c2c1)c1cc(=O)n2cc3c(cc2n1)OCCO3 (stereo not drawn) [Example 63, N-((2-(((Bicyclo[3.1.0]hexan-1-ylmethyl)amino)methyl)-1H-indol-6-yl)methyl)-9-oxo-2,3-dihydro-9H-[1,4]dioxino[2',3':4,5]pyrido[1,2-a]pyrimidine-7-carboxamide] | < 10
3 | O=C(NC1(c2ccc3cc(CNCC4CCC4)[nH]c3c2)CC1)c1cc(=O)n2cc3c(cc2n1)OCCO3 [Example 43, N-(1-(2-(((Cyclobutylmethyl)amino)methyl)-1H-indol-6-yl)cyclopropyl)-9-oxo-2,3-dihydro-9H-[1,4]dioxino[2',3':4,5]pyrido[1,2-a]pyrimidine-7-carboxamide] | 10 to 100
4 | CNc1nc(C(=O)NCc2ccc3cc(CNCC4CCC4)[nH]c3c2)cn2nccc12 [Example 13, N-((2-(((Cyclobutylmethyl)amino)methyl)-1H-indol-6-yl)methyl)-4-(methylamino)pyrazolo[1,5-a]pyrazine-6-carboxamide] | 10 to 100
5 | O=C(NCc1ccc2cc(CNCC3CCC3)[nH]c2c1)c1cc2ncccn2n1 [Example 2, N-((2-(((Cyclobutylmethyl)amino)methyl)-1H-indol-6-yl)methyl)pyrazolo[1,5-a]pyrimidine-2-carboxamide] | 10 to 100
6 | O=C(NCc1ccc2cc(CN3CCc4ccccc4C3)[nH]c2c1)c1cc(=O)n2cc3c(cc2n1)OCO3 [Example 34, N-((2-((3,4-dihydroisoquinolin-2(1H)-yl)methyl)-1H-indol-6-yl)methyl)-8-oxo-8H-[1,3]dioxolo[4',5':4,5]pyrido[1,2-a]pyrimidine-6-carboxamide] | 10 to 100
7 | O=C(NCc1ccc2cc(CNCC3CCC3)[nH]c2c1)c1cn2nccc(N3CCOCC3)c2n1 [Example 8, N-((2-(((Cyclobutylmethyl)amino)methyl)-1H-indol-6-yl)methyl)-8-morpholinoimidazo[1,2-b]pyridazine-2-carboxamide] | 100 to 1000
8 | O=C(NCc1ccc2cc(CNCC3CC(=C(F)F)C3)[nH]c2c1)c1cc(=O)n2cc3c(cc2n1)OCCO3 (stereo not drawn) [Example 28, N-((2-((((3-(Difluoromethylene)cyclobutyl)methyl)amino)methyl)-1H-indol-6-yl)methyl)-9-oxo-2,3-dihydro-9H-[1,4]dioxino[2',3':4,5]pyrido[1,2-a]pyrimidine-7-carboxamide] | 100 to 1000
9 | [2H]C([2H])(NCC1CCC1)c1cc2ccc(CNC(=O)c3cc(=O)n4cc5c(cc4n3)OCO5)cc2[nH]1 [Example 62, N-((2-(((cyclobutylmethyl)amino)methyl-d2)-1H-indol-6-yl)methyl)-8-oxo-8H-[1,3]dioxolo[4',5':4,5]pyrido[1,2-a]pyrimidine-6-carboxamide] | < 10
10 | O=C(NCc1cc2[nH]c(CNCC3CCC3)cc2s1)c1cc(=O)n2cc3c(cc2n1)OCCO3 [Example 31, N-((5-(((cyclobutylmethyl)amino)methyl)-4H-thieno[3,2-b]pyrrol-2-yl)methyl)-9-oxo-2,3-dihydro-9H-[1,4]dioxino[2',3':4,5]pyrido[1,2-a]pyrimidine-7-carboxamide] | 10 to 100
11 | O=C(NCc1ccc2cc(CNCC3(C(F)(F)F)CCC3)[nH]c2c1)c1cc(=O)n2cc3c(cc2n1)OCO3 [Example 56, 8-Oxo-N-((2-((((1-(trifluoromethyl)cyclobutyl)methyl)amino)methyl)-1H-indol-6-yl)methyl)-8H-[1,3]dioxolo[4',5':4,5]pyrido[1,2-a]pyrimidine-6-carboxamide] | 10 to 100
12 | O=C(NCc1c(F)cc2cc(CNCC3CCC3)[nH]c2c1F)c1cc(=O)n2cc3c(cc2n1)OCO3 [Example 75, N-((2-(((Cyclobutylmethyl)amino)methyl)-5,7-difluoro-1H-indol-6-yl)methyl)-8-oxo-8H-[1,3]dioxolo[4',5':4,5]pyrido[1,2-a]pyrimidine-6-carboxamide] | 10 to 100
13 | O=C(NCc1ccc2cc(CNCC3CC4(CCC4)C3)[nH]c2c1)c1cc(=O)n2cc3c(cc2n1)OCO3 [Example 58, 8-Oxo-N-((2-(((spiro[3.3]heptan-2-ylmethyl)amino)methyl)-1H-indol-6-yl)methyl)-8H-[1,3]dioxolo[4',5':4,5]pyrido[1,2-a]pyrimidine-6-carboxamide] | 10 to 100
14 | O=C(NCc1ccc2cc(CNC3CCC(F)(F)CC3)[nH]c2c1)c1cc(=O)n2cc3c(cc2n1)OCO3 [Example 37, N-((2-(((4,4-Difluorocyclohexyl)amino)methyl)-1H-indol-6-yl)methyl)-8-oxo-8H-[1,3]dioxolo[4',5':4,5]pyrido[1,2-a]pyrimidine-6-carboxamide] | 10 to 100
15 | O=C(NC1(c2ccc3cc(CNCC4CCC4)[nH]c3c2)CC1)c1cc(=O)n2cc3c(cc2n1)OCO3 [Example 42, N-(1-(2-(((Cyclobutylmethyl)amino)methyl)-1H-indol-6-yl)cyclopropyl)-8-oxo-8H-[1,3]dioxolo[4',5':4,5]pyrido[1,2-a]pyrimidine-6-carboxamide] | 100 to 1000
16 | O=C(NCc1ccc2cc(CNCc3ccc(F)s3)[nH]c2c1)c1cc(=O)n2cc3c(cc2n1)OCCO3 [Example 76, N-((2-((((5-fluorothiophen-2-yl)methyl)amino)methyl)-1H-indol-6-yl)methyl)-9-oxo-2,3-dihydro-9H-[1,4]dioxino[2',3':4,5]pyrido[1,2-a]pyrimidin-7-carboxamide] | 10 to 100
17 | O=C(NCc1ccc2cc(CNCC3(C(F)(F)F)CC3)[nH]c2c1)c1cc(=O)n2cc3c(cc2n1)OCO3 [Example 40, 8-Oxo-N-((2-((((1-(trifluoromethyl)cyclopropyl)methyl)amino)methyl)-1H-indol-6-yl)methyl)-8H-[1,3]dioxolo[4',5':4,5]pyrido[1,2-a]pyrimidine-6-carboxamide] | 10 to 100
18 | O=C(NCc1ccc2cc(CNC[C@H]3CCCO3)[nH]c2c1)c1cc(=O)n2cc3c(cc2n1)OCCO3 [Example 78, (R)-9-Oxo-N-((2-((((tetrahydrofuran-2-yl)methyl)amino)methyl)-1H-indol-6-yl)methyl)-2,3-dihydro-9H-[1,4]dioxino[2',3':4,5]pyrido[1,2-a]pyrimidine-7-carboxamide] | 10 to 100
19 | COC1(CNCc2cc3ccc(CNC(=O)c4cc(=O)n5cc6c(cc5n4)OCCO6)cc3[nH]2)CCC1 [Example 80, N-((2-((((1-Methoxycyclobutyl)methyl)amino)methyl)-1H-indol-6-yl)methyl)-9-oxo-2,3-dihydro-9H-[1,4]dioxino[2',3':4,5]pyrido[1,2-a]pyrimidine-7-carboxamide] | 10 to 100
20 | O=C(NCc1cc2[nH]c(CNCC34CC(F)(C3)C4)cc2cc1F)c1cc(=O)n2cc3c(cc2n1)OCO3 [Example 74, N-((5-fluoro-2-((((3-fluorobicyclo[1.1.1]pentan-1-yl)methyl)amino)methyl)-1H-indol-6-yl)methyl)-8-oxo-8H-[1,3]dioxolo[4',5':4,5]pyrido[1,2-a]pyrimidine-6-carboxamide] | < 10
21 | COC1(CNCc2cc3ccc(CNC(=O)c4cc(=O)n5cc6c(cc5n4)OCO6)cc3[nH]2)CCC1 [Example 83, N-((2-((((1-Methoxycyclobutyl)methyl)amino)methyl)-1H-indol-6-yl)methyl)-8-oxo-8H-[1,3]dioxolo[2',3':4,5]pyrido[1,2-a]pyrimidine-6-carboxamide] | < 10
22 | O=C(NCc1cc2ccc(CNCC3CCC3)cc2[nH]1)c1cc(=O)n2ccccc2n1 [Example 21, N-((6-(((Cyclobutylmethyl)amino)methyl)-1H-indol-2-yl)methyl)-4-oxo-4H-pyrido[1,2-a]pyrimidine-2-carboxamide] | 100 to 1000
23 | O=C(NCc1ccc2cc(CNCc3ccc(F)s3)[nH]c2c1)c1cc(=O)n2cc3c(cc2n1)OCO3 [Example 82, N-((2-((((5-Fluorothiophen-2-yl)methyl)amino)methyl)-1H-indol-6-yl)methyl)-8-oxo-8H-[1,3]dioxolo[2',3':4,5]pyrido[1,2-a]pyrimidine-6-carboxamide] | 10 to 100
24 | O=C(NCc1ccc2cc(CNCC3CCC3)[nH]c2c1)c1cn2ncccc2n1 [Example 1, N-((2-(((Cyclobutylmethyl)amino)methyl)-1H-indol-6-yl)methyl)imidazo[1,2-b]pyridazine-2-carboxamide] | 10 to 100
25 | O=C(NCc1ccc2cc(CNCC3CCC3)[nH]c2c1)c1ccn(Cc2ccccc2)c(=O)c1 [Example 11, 1-Benzyl-N-((2-(((cyclobutylmethyl)amino)methyl)-1H-indol-6-yl)methyl)-2-oxo-1,2-dihydropyridine-4-carboxamide] | 10 to 100
26 | O=C(NCc1ccc2cc(CNCC3CCC3)[nH]c2c1)c1cn2ncc3c2c(n1)OCCO3 [Example 61, N-((2-(((Cyclobutylmethyl)amino)methyl)-1H-indol-6-yl)methyl)-7,8-dihydro-6,9-dioxa-2,2a,5-triazabenzo[cd]azulene-4-carboxamide] | 100 to 1000
27 | O=C(NCc1ccc2cc(CN3CCC(F)(F)CC3)[nH]c2c1)c1cc(=O)n2cc3c(cc2n1)OCO3 [Example 29, N-((2-((4,4-Difluoropiperidin-1-yl)methyl)-1H-indol-6-yl)methyl)-8-oxo-8H-[1,3]dioxolo[4',5':4,5]pyrido[1,2-a]pyrimidine-6-carboxamide] | 10 to 100

Reference: EP4800016A1, “METTL3 INHIBITOR” (Hangzhou Bangshun Pharmaceutical Co., Ltd., priority 2023, dated 2025)
